The supplement of paper PMC10307832

Key:
Assay in all cases: relative viability (nuclei count vs DMSO), 5 days (fraction); higher = more cells survive
[1] = compound: Cc1ccc(-n2nc(C(C)(C)C)cc2NC(=O)Nc2ccc(OCCN3CCOCC3)c3ccccc23)cc1 [Doramapimod] + N=C(N)NC(=N)NCCc1ccccc1 [Phenformin] (partner 250 µM)
Outline: (§1)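 Cells from lung cancer lines were seeded into 1536-well plates and, one day later, dosed by pin tool. Treatments were either a single drug or a fixed dose of an anchor drug with five library-drug doses (not always all listed) in √10 steps. After 5 days, nuclei were stained in a one-step fixation (final 0.05% Triton X-100, 1% formaldehyde, 1 ug/ml Hoechst) and counted on 4× images, and relative viability is the treated-to-vehicle nuclei ratio, as the median of duplicate plates.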

[2] = compound: Cc1ccc(-n2nc(C(C)(C)C)cc2NC(=O)Nc2ccc(OCCN3CCOCC3)c3ccccc23)cc1 [Doramapimod] + C[C@@H](Oc1cc(-c2cnn(C3CCNCC3)c2)cnc1N)c1c(Cl)ccc(F)c1Cl [Crizotinib] (partner 1 µM)
Outline: as §1

[3] = compound: C1=CC=C2C(=C1)C=CC(=C2SSC3=C(C=CC4=CC=CC=C43)O)O [IPA-3] + N=C(N)NC(=N)NCCc1ccccc1 [Phenformin] (partner 250 µM)
Outline: as §1

[4] = compound: Cn1c(Nc2ccc(C(F)(F)F)cc2)nc2cc(Oc3ccnc(-c4ncc(C(F)(F)F)[nH]4)c3)ccc21 [RAF265] + Cc1cc(Nc2cc(N3CCN(C)CC3)nc(Sc3ccc(NC(=O)C4CC4)cc3)n2)n[nH]1 [Tozasertib] (partner 0.1 µM)
Outline: as §1

## NCI-H1355
[1]; first compound 0.02 µM
  relative viability: 0.423
[1]; first compound 0.06325 µM
  relative viability: 0.467
[1]; first compound 0.2 µM
  relative viability: 0.454
[1]; first compound 0.6325 µM
  relative viability: 0.421
[1]; first compound 2 µM
  relative viability: 0.415
[2]; first compound 0.02 µM
  relative viability: 0.981
[2]; first compound 0.06325 µM
  relative viability: 1.08
[2]; first compound 0.2 µM
  relative viability: 1.11
[2]; first compound 0.6325 µM
  relative viability: 1.04
[2]; first compound 2 µM
  relative viability: 1.03
[3]; first compound 0.2 µM
  relative viability: 0.471
[3]; first compound 0.6325 µM
  relative viability: 0.448
[3]; first compound 2 µM
  relative viability: 0.476
[3]; first compound 6.325 µM
  relative viability: 0.44
[3]; first compound 20 µM
  relative viability: 0.482
[4]; first compound 0.01 µM
  relative viability: 0.575
[4]; first compound 0.03162 µM
  relative viability: 0.515
[4]; first compound 0.1 µM
  relative viability: 0.587
[4]; first compound 0.3162 µM
  relative viability: 0.47
[4]; first compound 1 µM
  relative viability: 0.19

## EKVX
[1]; first compound 0.02 µM
  relative viability: 0.256
[1]; first compound 0.06325 µM
  relative viability: 0.24
[1]; first compound 0.2 µM
  relative viability: 0.253
[1]; first compound 0.6325 µM
  relative viability: 0.179
[1]; first compound 2 µM
  relative viability: 0.204
[2]; first compound 0.02 µM
  relative viability: 0.986
[2]; first compound 0.06325 µM
  relative viability: 0.98
[2]; first compound 0.2 µM
  relative viability: 0.822
[2]; first compound 0.6325 µM
  relative viability: 0.951
[2]; first compound 2 µM
  relative viability: 0.918
[3]; first compound 0.2 µM
  relative viability: 0.267
[3]; first compound 0.6325 µM
  relative viability: 0.235
[3]; first compound 2 µM
  relative viability: 0.238
[3]; first compound 6.325 µM
  relative viability: 0.235
[3]; first compound 20 µM
  relative viability: 0.266
[4]; first compound 0.01 µM
  relative viability: 0.376
[4]; first compound 0.03162 µM
  relative viability: 0.344
[4]; first compound 0.1 µM
  relative viability: 0.469
[4]; first compound 0.3162 µM
  relative viability: 0.377
[4]; first compound 1 µM
  relative viability: 0.306

## NCI-H441
[1]; first compound 0.02 µM
  relative viability: 0.895
[1]; first compound 0.06325 µM
  relative viability: 0.808
[1]; first compound 0.2 µM
  relative viability: 0.828
[1]; first compound 2 µM
  relative viability: 0.729
[2]; first compound 0.02 µM
  relative viability: 0.96
[2]; first compound 0.06325 µM
  relative viability: 0.512
[2]; first compound 0.2 µM
  relative viability: 0.67
[2]; first compound 0.6325 µM
  relative viability: 0.741
[2]; first compound 2 µM
  relative viability: 0.549
[3]; first compound 0.2 µM
  relative viability: 1
[3]; first compound 0.6325 µM
  relative viability: 0.715
[3]; first compound 2 µM
  relative viability: 0.838
[3]; first compound 6.325 µM
  relative viability: 0.742
[3]; first compound 20 µM
  relative viability: 0.513
[4]; first compound 0.01 µM
  relative viability: 0.715
[4]; first compound 0.03162 µM
  relative viability: 0.69
[4]; first compound 0.1 µM
  relative viability: 0.667
[4]; first compound 0.3162 µM
  relative viability: 0.475
[4]; first compound 1 µM
  relative viability: 0.36

## NCI-H1975
[1]; first compound 0.02 µM
  relative viability: 0.41
[1]; first compound 0.06325 µM
  relative viability: 0.382
[1]; first compound 0.2 µM
  relative viability: 0.411
[1]; first compound 0.6325 µM
  relative viability: 0.415
[1]; first compound 2 µM
  relative viability: 0.397
[2]; first compound 0.02 µM
  relative viability: 1.05
[2]; first compound 0.06325 µM
  relative viability: 0.944
[2]; first compound 0.2 µM
  relative viability: 0.897
[2]; first compound 0.6325 µM
  relative viability: 0.973
[2]; first compound 2 µM
  relative viability: 0.96
[3]; first compound 0.2 µM
  relative viability: 0.43
[3]; first compound 0.6325 µM
  relative viability: 0.385
[3]; first compound 2 µM
  relative viability: 0.43
[3]; first compound 6.325 µM
  relative viability: 0.429
[3]; first compound 20 µM
  relative viability: 0.381
[4]; first compound 0.01 µM
  relative viability: 0.676
[4]; first compound 0.03162 µM
  relative viability: 0.621
[4]; first compound 0.1 µM
  relative viability: 0.7
[4]; first compound 0.3162 µM
  relative viability: 0.379
[4]; first compound 1 µM
  relative viability: 0.126

## HCC-78
[1]; first compound 0.02 µM
  relative viability: 0.704
[1]; first compound 0.06325 µM
  relative viability: 0.819
[1]; first compound 0.2 µM
  relative viability: 0.743
[1]; first compound 0.6325 µM
  relative viability: 0.813
[1]; first compound 2 µM
  relative viability: 0.543
[2]; first compound 0.02 µM
  relative viability: 0.356
[2]; first compound 0.06325 µM
  relative viability: 0.364
[2]; first compound 0.2 µM
  relative viability: 0.336
[2]; first compound 0.6325 µM
  relative viability: 0.399
[2]; first compound 2 µM
  relative viability: 0.358
[3]; first compound 0.2 µM
  relative viability: 0.768
[3]; first compound 0.6325 µM
  relative viability: 0.64
[3]; first compound 2 µM
  relative viability: 0.728
[3]; first compound 6.325 µM
  relative viability: 0.801
[3]; first compound 20 µM
  relative viability: 0.692
[4]; first compound 0.01 µM
  relative viability: 0.349
[4]; first compound 0.03162 µM
  relative viability: 0.472
[4]; first compound 0.1 µM
  relative viability: 0.417
[4]; first compound 0.3162 µM
  relative viability: 0.463
[4]; first compound 1 µM
  relative viability: 0.396

## NCI-H2085
[1]; first compound 0.02 µM
  relative viability: 0.758
[1]; first compound 0.06325 µM
  relative viability: 0.623
[1]; first compound 0.2 µM
  relative viability: 0.592
[1]; first compound 0.6325 µM
  relative viability: 0.705
[1]; first compound 2 µM
  relative viability: 0.661
[2]; first compound 0.02 µM
  relative viability: 0.86
[2]; first compound 0.06325 µM
  relative viability: 0.871
[2]; first compound 0.2 µM
  relative viability: 0.851
[2]; first compound 0.6325 µM
  relative viability: 0.95
[2]; first compound 2 µM
  relative viability: 0.655
[3]; first compound 0.2 µM
  relative viability: 0.82
[3]; first compound 0.6325 µM
  relative viability: 0.651
[3]; first compound 2 µM
  relative viability: 0.744
[3]; first compound 6.325 µM
  relative viability: 0.678
[3]; first compound 20 µM
  relative viability: 0.585
[4]; first compound 0.01 µM
  relative viability: 0.965
[4]; first compound 0.03162 µM
  relative viability: 0.706
[4]; first compound 0.1 µM
  relative viability: 0.914
[4]; first compound 0.3162 µM
  relative viability: 0.822
[4]; first compound 1 µM
  relative viability: 0.558

## H3255
[1]; first compound 0.02 µM
  relative viability: 0.356
[1]; first compound 0.06325 µM
  relative viability: 0.345
[1]; first compound 0.2 µM
  relative viability: 0.391
[1]; first compound 0.6325 µM
  relative viability: 0.366
[1]; first compound 2 µM
  relative viability: 0.411
[2]; first compound 0.02 µM
  relative viability: 0.919
[2]; first compound 0.06325 µM
  relative viability: 0.785
[2]; first compound 0.2 µM
  relative viability: 0.893
[2]; first compound 0.6325 µM
  relative viability: 0.851
[2]; first compound 2 µM
  relative viability: 0.852
[3]; first compound 0.2 µM
  relative viability: 0.443
[3]; first compound 0.6325 µM
  relative viability: 0.368
[3]; first compound 2 µM
  relative viability: 0.343
[3]; first compound 6.325 µM
  relative viability: 0.386
[3]; first compound 20 µM
  relative viability: 0.408
[4]; first compound 0.01 µM
  relative viability: 0.553
[4]; first compound 0.03162 µM
  relative viability: 0.54
[4]; first compound 0.1 µM
  relative viability: 0.605
[4]; first compound 1 µM
  relative viability: 0.476

## NCI-H2087
[1]; first compound 0.02 µM
  relative viability: 0.403
[1]; first compound 0.06325 µM
  relative viability: 0.459
[1]; first compound 0.2 µM
  relative viability: 0.411
[1]; first compound 0.6325 µM
  relative viability: 0.415
[1]; first compound 2 µM
  relative viability: 0.412
[2]; first compound 0.02 µM
  relative viability: 0.982
[2]; first compound 0.06325 µM
  relative viability: 0.888
[2]; first compound 0.2 µM
  relative viability: 0.922
[2]; first compound 0.6325 µM
  relative viability: 0.908
[2]; first compound 2 µM
  relative viability: 0.988
[3]; first compound 0.2 µM
  relative viability: 0.596
[3]; first compound 0.6325 µM
  relative viability: 0.412
[3]; first compound 2 µM
  relative viability: 0.555
[3]; first compound 6.325 µM
  relative viability: 0.476
[3]; first compound 20 µM
  relative viability: 0.466
[4]; first compound 0.01 µM
  relative viability: 0.268
[4]; first compound 0.03162 µM
  relative viability: 0.266
[4]; first compound 0.1 µM
  relative viability: 0.284
[4]; first compound 0.3162 µM
  relative viability: 0.205
[4]; first compound 1 µM
  relative viability: 0.152
